Data as given in US20230279433A1, “METHODS AND COMPOSITIONS FOR THE PRODUCTION OF ADENO-ASSOCIATED VIRUS” (priority 2021, published 2023).

Tests used:
Format in all cases: cell-based
[1] = system: AAV producer cells (HEK293 cells); assay: DMSO time course analysis of AAV productivity; conditions: 1.5% (v/v) DMSO added two hours pre-transfection and up to 30 minutes post-transfection; compared to the other time points tested
Description: For each parameter tested, HEK293 cells were expanded by shake flask culture with a target seed density of >0.25E6 viable cells/mL and a target final density of <6E6 viable cells/mL. Expanded cells were inoculated into an Applikon 3 L Glass Bioreactor containing the appropriate amount of cell culture medium prior to transfection at a 2 L working volume.
(§1) Cell transfection was performed generally as described in Grieger et al. (2016) Molecular Therapy 24(2): 287-297. Briefly, transfection mixes were prepared by mixing calculated volumes of vector(s), transfection media, and polyethylenimine (PEI), all at ambient temperature, and allowed to equilibrate before the transfection mixes were added to the cells. […] Productivity was measured by vector genome titer and capsid yield. Vector genome (VG) titer was determined by droplet digital PCR (ddPCR) by standard methods using primer/probe sets specific to the transgene payload of the vector comprising the transgene. Capsid yield was determined using enzyme-linked immunosorbent assays (ELISAs) by standard methods with an immobilized antibody directed against an epitope of the capsid as encoded by the vector comprising the capsid sequences. Percentage of intact vector genomes (% Full capsids) was calculated by dividing the vector genome productivity determined by ddPCR by the number of capsids determined by ELISA. […]

[2] = system: AAV producer cells (HEK293 cells); assay: AAV productivity with culture media additives supplemented two hours post-transfection (shake flasks)
Description: For each parameter tested, HEK293 cells were expanded by shake flask culture with a target seed density of >0.25E6 viable cells/mL and a target final density of <6E6 viable cells/mL. […]
as §1, with “cells. Post-transfection bioreactor setpoint shifts were performed 2 hours post-transfection, and cells were harvested 72 hours post-transfection.” for “cells.”

second HEK293 cell line [3] = assay: AAV productivity at different DMSO concentrations, shake flasks
Description: (§2) Cell transfection was performed generally as described in Grieger et al. (2016) Molecular Therapy 24(2): 287-297. Briefly, transfection mixes were prepared by mixing calculated volumes of vector(s), transfection media, and polyethylenimine (PEI), all at ambient temperature, and allowed to equilibrate before the transfection mixes were added to the cells. Post-transfection bioreactor setpoint shifts were performed 2 hours post-transfection, and cells were harvested 72 hours post-transfection. Harvested cells were lysed as described in Grieger et al. (2016) Molecular Therapy 24(2): 287-297. Crude lysate samples were collected following centrifugation to remove cellular debris. Productivity was measured by vector genome titer and capsid yield. Vector genome (VG) titer was determined by droplet digital PCR (ddPCR) by standard methods using primer/probe sets specific to the transgene payload of the vector comprising the transgene. Capsid yield was determined using enzyme-linked immunosorbent assays (ELISAs) by standard methods with an immobilized antibody directed against an epitope of the capsid as encoded by the vector comprising the capsid sequences. Percentage of intact vector genomes (% Full capsids) was calculated by dividing the vector genome productivity determined by ddPCR by the number of capsids determined by ELISA.
The conditions of DMSO supplementation were further tested using different representative AAV particles. Experiments were performed with a second HEK293 cell line according to the methods described in Example 1 using shake flasks.
AAV productivity, in terms of vector genome (VG) titer (FIGS. 9A and 10A), capsid yield (FIGS. 9B and 10B), and percent intact vector genomes (% Full; FIGS. 9C and 10C), was measured as described in Example 1.

second HEK293 cell line [4] = assay: AAV productivity with DMSO supplementation 30-120 minutes post-transfection, 3 L single-use bioreactors; conditions: DMSO 120 minutes vs 30 minutes post-transfection, pH 7.0, 39° C.
Description: as §2
Based on the findings above, the effects of post-transfection pH, and the effect of supplementing the culture media with DMSO at 30-120 minutes post-transfection were further tested using a different representative AAV particle. Experiments were performed with a second HEK293 cell line according to the methods described in Examples 1 and 5 using 3 L single-use bioreactors.
AAV productivity, in terms of vector genome (VG) titer (FIG. 8A), capsid yield (FIG. 8B), and percent intact vector genomes (% Full; FIG. 8C), was measured as described in Example 1.

## C[S+](C)[O-] [DMSO, dimethyl sulfoxide]
[1]
  percent yield of full capsids: higher percent yield of full capsids
[2]; DMSO added two hours post-transfection, compared to the other additives
  percent full capsids: higher percent full capsids
[2]; additive added two hours post-transfection, all tested concentrations (Table 5), over control conditions without additive, ddPCR, crude lysate
  VG titer: general increase
Second HEK293 cell line [3]; FIG. 9A, 0.5% to 2.25% DMSO two hours post-transfection, up to a DMSO concentration of 1.5%
  VG titer: increased
Second HEK293 cell line [3]; FIG. 9B, 0.5% to 2.25% DMSO two hours post-transfection, up to a DMSO concentration of 1.5%
  capsid titer: increased or comparable
Second HEK293 cell line [3]; FIG. 9C, 0.5% to 2.25% DMSO two hours post-transfection
  percent full capsids: increased
Second HEK293 cell line [3]; FIG. 10A, 0.75% DMSO two hours post-transfection compared with 0% DMSO
  VG titer: increased
Second HEK293 cell line [3]; FIG. 10A, 1.5% DMSO two hours post-transfection compared with 0.75% DMSO
  VG titer: comparable
Second HEK293 cell line [3]; FIG. 10B, 0.75% DMSO two hours post-transfection compared with 0% DMSO
  capsid titer: increased
Second HEK293 cell line [3]; FIG. 10B, 1.5% DMSO two hours post-transfection compared with 0.75% DMSO
  capsid titer: decreased
Second HEK293 cell line [3]; FIG. 10C, 0.75% DMSO two hours post-transfection compared with 0% DMSO
  percent full capsids: comparable
Second HEK293 cell line [3]; FIG. 10C, 1.5% DMSO two hours post-transfection compared with 0.75% DMSO
  percent full capsids: increased
Second HEK293 cell line [4]
  VG titers: similar
  capsid yields: similar
  intact vector genomes: similar
